# In patent US11840731B2, “Method for diagnosing and treating subjects having single nucleotide polymorphisms in chromosome 2, 2:107,510,000-107,540,000 locus” (NEURIM PHARMACEUTICALS (1991) LTD., priority 2021, dated 2023):
# Marks after values point to notes of the source that are not given here.
# Tests used:
# [1] = system: patients with early symptomatic Alzheimer's disease; experiment: neuropsychiatric inventory (NPI), randomized placebo controlled study; type: in vivo, human; details: for NPI Improvement: 20 mg daily for 26 weeks
# [2] = system: patients with early symptomatic Alzheimer's disease; experiment: Alzheimer's Disease Assessment Scale cognitive subscale (ADAS-Cog14), randomized placebo controlled study; type: in vivo, human; design: key to ADAS-Cog14 Improvement: ns = non-significant effect; deter = deterioration compared to placebo
# [3] = system: patients with early symptomatic Alzheimer's disease; experiment: computerized Neuropsychological Test Battery (cNTB), randomized placebo controlled study; type: in vivo, human; design: key to cNTB Improvement: ns = non-significant effect; deter = deterioration compared to placebo; details: for cNTB: 5, 20 and 50 mg daily for 26 weeks, change from baseline
# Description: DNA extraction and SNP genotyping were performed as follows: For 107 patients, whole blood was collected at the time of enrollment, and genomic DNA was extracted from peripheral lymphocytes using a commercial kit. Variant genotyping of a combined Whole Genome and Whole Exome sequencing, was performed. The detection of variants associated with the response of the treatment was performed through a genome wide association study (GWAS) analysis (which is a known case-control paradigm). […] The general case-control allelic test was performed through a Cochran-Armitage trend test. […] The stratification was assessed by a complete-linkage hierarchical clustering using the pairwise population concordance as a constraint. The SNP calling was done on the aligned BAM files using DRAGEN: […]
# [4] = molecular target: T1, 5-HT1a (Homo sapiens, UniProt P08908); experiment: receptor binding assay, radioligand 3H-OH-DPAT, HEK-293 cells; design: expressed in transfected cells; host or cells: HEK-293; details: 5-HT1A
# T1 sequence (P08908 1-422): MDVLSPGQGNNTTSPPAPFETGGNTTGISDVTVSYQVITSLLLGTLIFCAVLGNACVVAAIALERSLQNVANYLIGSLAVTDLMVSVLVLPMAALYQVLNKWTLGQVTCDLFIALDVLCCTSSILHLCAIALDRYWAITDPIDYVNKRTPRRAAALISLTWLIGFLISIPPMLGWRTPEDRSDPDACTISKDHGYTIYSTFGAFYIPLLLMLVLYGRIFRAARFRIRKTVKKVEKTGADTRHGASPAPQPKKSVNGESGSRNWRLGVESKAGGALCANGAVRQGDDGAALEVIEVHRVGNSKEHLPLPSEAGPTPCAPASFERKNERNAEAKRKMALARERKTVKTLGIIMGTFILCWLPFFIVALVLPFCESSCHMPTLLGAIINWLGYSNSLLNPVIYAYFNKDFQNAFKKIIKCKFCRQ
# Description: (§1) For receptor binding assays, stably expressing 5-HT1a, 1b, 1d and 2c receptors cells (HEK-293, rat cerebral cortex, CHO and HEK-293, respectively) were incubated with 0.3 or 1 nM of their respective radioligand (^3H-OH-DPAT, ^125I CYP, ^3H serotonin and ^3H-mesulergine) alone or in the presence of 1 nM to 10 μM of piromelatine. The bound radioligand was assessed. Non-specific binding was evaluated under the reaction contained with 8-OH-PTA, serotonin and RS-10221 (8-[5-(2,4-Dimethoxy-5-(4-trifluoromethylphenylsulphonamido)phenyl-5-oxopentyl]-1,3,8-triazaspiro[4.5]decane-2,4-dione hydrochloride).
# [5] = molecular target: T1, 5-HT1a; experiment: functional assay, HTRF (cAMP or IP1); type: cell-based
# Description: (§2) For the functional assay, Homogeneous Time Resolved Fluorescence (HTRF) was used to measure cAMP or IP1 as products of the functional agonist or antagonist binding of 5-HT1a, 2a,2b, 2c, 4e, 6, 7 to their respective ligand (8-OG-DPAT or serotonin). Cellular dielectric spectroscopy was used to measure impedance as the product of the functional agonist or antagonist binding of 5HT1b and determine their respective ligand (serotonin).
# [6] = molecular target: T2, 5-HT-2c receptor (Homo sapiens, UniProt P28335); experiment: receptor binding assay, radioligand 3H-mesulergine, HEK-293 cells; details: 5-HT2C
# T2 construct: expressed in transfected cells; host or cells: HEK-293
# T2 sequence (P28335 33-458): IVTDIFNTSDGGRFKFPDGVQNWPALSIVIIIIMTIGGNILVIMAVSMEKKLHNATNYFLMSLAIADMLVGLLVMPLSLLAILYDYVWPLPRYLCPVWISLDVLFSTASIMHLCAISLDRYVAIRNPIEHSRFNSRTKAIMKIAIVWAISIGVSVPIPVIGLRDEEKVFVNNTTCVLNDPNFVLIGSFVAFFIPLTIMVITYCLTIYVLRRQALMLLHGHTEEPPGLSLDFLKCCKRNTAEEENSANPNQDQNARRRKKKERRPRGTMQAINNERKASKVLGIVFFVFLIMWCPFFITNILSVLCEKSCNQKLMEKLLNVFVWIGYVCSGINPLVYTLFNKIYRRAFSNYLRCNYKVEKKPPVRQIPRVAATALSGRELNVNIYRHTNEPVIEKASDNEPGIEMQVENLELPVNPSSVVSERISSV
# Description: as §1
# [7] = molecular target: 5HT1b (Homo sapiens, UniProt P28222); experiment: functional assay, cellular dielectric spectroscopy (impedance); type: cell-based
# Chain of 5HT1b (P28222 whole entry, species assumed): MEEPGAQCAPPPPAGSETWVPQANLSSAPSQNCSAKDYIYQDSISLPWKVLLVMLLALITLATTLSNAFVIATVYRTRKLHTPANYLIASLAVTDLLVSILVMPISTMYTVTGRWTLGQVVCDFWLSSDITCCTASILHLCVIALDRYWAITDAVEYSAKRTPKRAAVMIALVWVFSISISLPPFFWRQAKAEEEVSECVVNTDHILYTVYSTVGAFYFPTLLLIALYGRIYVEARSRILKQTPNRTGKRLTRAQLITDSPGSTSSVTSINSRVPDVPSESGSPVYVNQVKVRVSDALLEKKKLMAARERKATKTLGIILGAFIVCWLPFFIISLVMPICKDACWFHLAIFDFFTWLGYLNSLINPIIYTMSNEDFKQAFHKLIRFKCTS
# Description: as §2
# [8] = molecular target: T3, 5-HT-1b receptor (Rattus norvegicus, UniProt P28564); experiment: receptor binding assay, radioligand 125I CYP, rat cerebral cortex; details: 5-HT1B
# T3 construct: from tissue; host or cells: rat cerebral cortex
# T3 sequence (P28564 whole entry): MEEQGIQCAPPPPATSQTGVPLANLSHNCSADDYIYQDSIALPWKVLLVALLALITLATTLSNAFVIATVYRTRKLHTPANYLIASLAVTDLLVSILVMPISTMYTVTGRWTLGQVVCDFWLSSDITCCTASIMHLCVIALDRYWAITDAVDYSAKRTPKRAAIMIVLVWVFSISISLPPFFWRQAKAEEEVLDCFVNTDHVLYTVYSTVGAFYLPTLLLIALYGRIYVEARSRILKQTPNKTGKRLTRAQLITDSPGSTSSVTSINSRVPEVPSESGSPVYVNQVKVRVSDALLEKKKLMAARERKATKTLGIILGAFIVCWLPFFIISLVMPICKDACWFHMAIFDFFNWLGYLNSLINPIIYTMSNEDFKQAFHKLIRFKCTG
# Description: as §1
# [9] = system: 5-HT1d; experiment: functional assay; type: cell-based; details: 5-H 1d
# [10] = system: patients with early symptomatic Alzheimer's disease; experiment: computerized Neuropsychological Test Battery (cNTB), randomized placebo controlled study; type: in vivo, human
# [11] = system: 60 different ion channels and receptors of different neurotransmitters and hormones; experiment: full profile of binding parameters, 60 receptor assays; details: 10 μM; none of the 60 receptor assays significant
# Description: A full profile of binding parameters to an additional 60 different ion channels and receptors of different neurotransmitters and hormones was performed (data not shown because none of the 60 receptor assays yielded a significant (>50%) inhibition by 10 μM of piromelatine).
# [12] = molecular target: 5-HT-2a receptor (Homo sapiens, UniProt P28223); experiment: receptor binding assay; details: 5-HT2A
# Chain of 5-HT-2a receptor (P28223 whole entry): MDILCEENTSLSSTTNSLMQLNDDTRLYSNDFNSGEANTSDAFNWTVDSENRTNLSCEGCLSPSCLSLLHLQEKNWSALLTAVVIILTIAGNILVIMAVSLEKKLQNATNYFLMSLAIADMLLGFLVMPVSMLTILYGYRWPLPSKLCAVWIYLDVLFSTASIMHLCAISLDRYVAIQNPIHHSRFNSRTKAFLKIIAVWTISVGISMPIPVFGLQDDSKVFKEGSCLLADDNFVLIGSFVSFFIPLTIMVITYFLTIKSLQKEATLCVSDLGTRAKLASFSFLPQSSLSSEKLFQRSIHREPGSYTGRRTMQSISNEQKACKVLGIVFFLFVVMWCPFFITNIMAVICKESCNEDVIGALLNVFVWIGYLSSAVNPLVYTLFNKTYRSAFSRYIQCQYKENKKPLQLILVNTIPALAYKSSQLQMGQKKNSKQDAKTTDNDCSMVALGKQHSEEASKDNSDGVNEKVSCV
# [13] = system: patients with early symptomatic Alzheimer's disease; experiment: sleep quality index (PSQI), randomized placebo controlled study; type: in vivo, human; details: non-carriers (N = 23); 20 mg daily for 26 weeks
# [14] = molecular target: 5-HT-2b receptor (Homo sapiens, UniProt P41595); experiment: receptor binding assay; details: 5-HT2B
# Chain of 5-HT-2b receptor (P41595 whole entry): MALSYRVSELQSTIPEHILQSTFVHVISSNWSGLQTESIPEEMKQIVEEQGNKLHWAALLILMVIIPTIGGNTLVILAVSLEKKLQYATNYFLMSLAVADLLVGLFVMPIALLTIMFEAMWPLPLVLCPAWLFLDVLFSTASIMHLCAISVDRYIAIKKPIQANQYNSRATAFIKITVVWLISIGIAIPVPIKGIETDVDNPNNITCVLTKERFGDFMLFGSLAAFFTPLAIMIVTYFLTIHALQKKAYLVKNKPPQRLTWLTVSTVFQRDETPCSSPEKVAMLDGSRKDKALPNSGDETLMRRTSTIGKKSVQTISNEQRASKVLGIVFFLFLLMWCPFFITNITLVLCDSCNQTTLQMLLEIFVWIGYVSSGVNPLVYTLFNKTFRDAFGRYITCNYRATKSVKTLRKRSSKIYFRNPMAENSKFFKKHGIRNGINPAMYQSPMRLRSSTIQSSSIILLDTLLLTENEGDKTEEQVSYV
# [15] = locus polymorphism carriers, 5, 20 and 50 mg, 26 weeks, N = 19, vs placebo
# [16] = locus polymorphism non-carriers, 5, 20 and 50 mg, 26 weeks, N = 59, vs placebo
# [17] = whole study, n=352, 5, 20, and 50 mg daily for 6 months
structure (smiles),measurement,setting,value
"COc1ccc2[nH]cc(CCNC(=O)c3cc(=O)cco3)c2c1 [piromelatine, N-(2-(5-methoxy-1H-indol-3-yl)ethyl)-4-oxo-4H-pyran-2-carboxamide]",NPI Improvement,[1]; carriers (N = 12),yes
same,NPI aberrant movements,"[1]; carriers, 20 mg",improvement
same,NPI Improvement,[1]; non-carriers (N = 23),yes
same,"ADAS Cog14, Cohen's d vs placebo > 0.2","[2]; carriers, 5 mg daily for 26 weeks",improvement
same,ADAS-Cog14,"[2]; locus polymorphism carriers, 5, 20 and 50 mg daily for 26 weeks, N = 19",0.63*
same,ADAS-Cog14 Improvement,[2]; [15],deter
same,ADAS-Cog14 Improvement,[2]; [16],yes
same,ADAS-Cog14 Improvement,"[2]; non-carriers (N = 23), 20 mg daily for 26 weeks",yes
same,"ADAS Cog14, Cohen's d vs placebo > 0.20","[2]; non-carriers, 5 mg daily for 26 weeks",no improvement
same,"ADAS-Cog14, drug vs placebo",[2]; [17],no statistically significant differences
same,cNTB Improvement,"[3]; carriers (N = 12), 20 mg daily for 26 weeks",yes
same,cNTB attention domain composite score,"[3]; carriers, 5 mg",improved
same,cNTB episodic memory domain composite score,"[3]; carriers, 5 mg",improved
same,cNTB episodic memory domain composite score,"[3]; carriers, 20 mg",improved
same,cNTB,"[3]; locus polymorphism carriers, N = 19",0.38*
same,cNTB Improvement,[3]; [15],yes
same,cNTB,"[3]; locus polymorphism non-carriers, N = 59",−0.04
same,cNTB Improvement,[3]; [16],ns
same,affinity in words,[4],low affinity
same,agonist activity,[5],moderate agonist activity
same,affinity in words,[6],low affinity
same,agonist activity,[7],Low agonist activity
same,affinity in words,[8],low affinity
same,agonist activity,[9],moderate agonist activity
same,cNTB attention domain composite score,"[10]; carriers, 20 mg",improved
same,"global composite score of the cNTB, drug vs placebo",[10]; [17],no statistically significant differences
same,inhibition,[11],≤ 50%
same,affinity in words,[12],low affinity
same,PSQI Improvement,[13],yes
same,affinity in words,[14],low affinity
